The nature of data set [1]: Photostability of a film of oily solution under an Oriel sun simulator, quantified by HPLC. The data set is classed as physicochemical. The note with it: 5% by weight in Miglyol 812 oil; about 1 mg/cm^2 film; irradiated one hour, UVA=14.2 mW/cm^2, UVB=0.41 mW/cm^2; individual tests. The protocol: Compared photostabilities between a compound of the prior art and the compound according to the invention of Example 1:
The two products were dissolved at 5% by weight in Miglyol 812 oil. About 10 mg of oily solution are spread over 10 cm^2 onto the surface of a frosted-glass hollow disc; the amount is determined by weighing.
The films of oily solutions are irradiated for one hour using an Oriel sun simulator (UVA=14.2 mW/cm^2; UVB=0.41 mW/cm^2), and then extracted with 10 ml of ethanol containing 10% isopropanol and treated with ultrasound for 5 minutes. The quantifications of the products are performed by HPLC of the extracts.
HPLC conditions: column: UP5WOD-25QS, 250*4.6 mm, 5 μm, Interchrom; eluent: methanol (Comparative Example 1) and 96% methanol+4% water (Example 1); flow rate: 1 ml/minute; injected volume: 10 μl; detection: diode array; rt (minutes): 5.2 (Comparative Example 1) and 14.9 (Example 1).
The degrees of loss are determined by comparison of the amounts of product present in the irradiated samples and in the non-irradiated controls prepared simultaneously and treated in the same manner (average of 3 samples; S=surface area/mg solution): % loss=100*(S0-Sirr)/S0

The nature of the next data set: UV absorption in ethanol. Format: physicochemical.

Values joined by “and” are separate entries in the source; they are usually repeats but may differ in a detail not shown here. Equal values may be shown once.

With `CC(C)COC(=O)C(=Cc1ccc(Nc2nc(Nc3ccc(C=C(C(=O)OCC(C)C)C(=O)OCC(C)C)cc3)nc(Nc3ccc(C=C(C(=O)OCC(C)C)C(=O)OCC(C)C)cc3)n2)cc1)C(=O)OCC(C)C` [Compound (prior art), 2,4,6-tris(Diisobutyl 4′-aminobenzalmalonate)-s-triazine, reference compound], the “% disappearance” value in data set [1] was 11% and 10% and 9%.
Turning to `CC(C)(C)COC(=O)C(=Cc1ccc(Nc2nc(Nc3ccc(C=C(C(=O)OCC(C)(C)C)C(=O)OCC(C)(C)C)cc3)nc(Nc3ccc(C=C(C(=O)OCC(C)(C)C)C(=O)OCC(C)(C)C)cc3)n2)cc1)C(=O)OCC(C)(C)C` [Example 1, 2,4,6-tris(dineopentyl 4′-aminobenzalmalonate)-s-triazine], in “UV absorption in ethanol”, the “UV E1%” value is reported as 956, the UV εmax turned out to be 110000 M⁻¹ cm⁻¹ and the “UV λmax” value is on record as 356 nm. The “% disappearance” value in data set [1] is 3% and 5% and 4%.
In the case of `CC(C)CC(C)OC(=O)C(=Cc1ccc(Nc2nc(Nc3ccc(C=C(C(=O)OC(C)CC(C)C)C(=O)OC(C)CC(C)C)cc3)nc(Nc3ccc(C=C(C(=O)OC(C)CC(C)C)C(=O)OC(C)CC(C)C)cc3)n2)cc1)C(=O)OC(C)CC(C)C` (centres unmarked) [Example 2, 2,4,6-tris(bis(1,3-dimethylbutyl) 4′-aminobenzalmalonate)-s-triazine], in the data set “UV absorption in ethanol”, the “UV E1%” value is 922, the UV εmax was found to be 111000 M⁻¹ cm⁻¹ and the “UV λmax” value came out at 353 nm.

These data come from US7217821B2, “Photoprotective cosmetic compositions comprising para-aminobenzalmalonate-substituted s-triazine compounds” (L'Oreal, priority 2003, dated 2007).
